In patent US8299056B2 (Signal Pharmaceuticals, LLC, priority 2008, dated 2012):

Each molecule was assayed against T1, Syk (Homo sapiens, UniProt P43405) (assay: Syk HTRF assay). Settings: IC50 activity level, read-out: Activity Level.
T1 construct: purchased Carna Biosciences
Assay type: biochemical
Protocol: Test compounds were prepared at a concentration of 1.5 mM in DMSO followed by 3-fold dilutions in Greiner […] polypropylene plates. A 1:4 dilution of compounds by 8 μL/well transfer from the polypropylene plates to 24 μL/well Assay Buffer in Costar 3710 384 well black plates was then performed. Kinases (13 μL/well) or Assay Buffer only (background controls; 50 mM HEPES pH 7.6, 1 mM DTT, 10 mM MgCl2, 0.01% Triton X100, 0.01% BSA and 0.1 mM EDTA) were added to Costar 3710 384-well black plates for the HTRF assays (Carna Biosciences) and compound was added from the 1:4 dilution plate. Syk start mix (87.5 μM ATP, 80 nM Substrate Peptide (American Peptide Company 332722) was added and the mixture was incubated at room temperature for 1 hour. Syk Stop Solution (120 mM EDTA in dilution buffer) was then added to the Syk HTRF assay plate and incubated at room temperature on a shaker for 2 minutes. Syk Antibody Mix (4.86 μg/mL DyLight 647 Streptavidin (Pierce 21824); 1 μg/mL Lance Eu-Anti-Phosphotyrosine (PerkinElmer AD0069)) was added to the Syk HTRF assay plate and the mixture was further incubated at room temperature for >4 h. Time resolved fluorescence was read in assay plates on a PerkinElmer EnVision. HTRF assays were performed using 320 nm excitation, 60 μs delay, 665 nm and 615 nm emission. Data was expressed by division of 665 nm by 615 nm emissions.
With `FC(F)(F)c1ccc(Nc2nc3cccc(N[C@H]4CCCNC4)n3n2)cc1` [Example 469, (S)-N^5-(piperidin-3-yl)-N^2-(4-(trifluoromethyl)phenyl)-[1,2,4]triazolo[1,5-a]pyridin-2,5-diamine] the IC50 was 0.005 to 250 nM. `c1ccc(Nc2nc3cccc(N[C@H]4CCCNC4)n3n2)cc1` [Example 507, (S)-N^2-phenyl-N^5-(piperidin-3-yl)-[1,2,4]triazolo[1,5-a]pyridin-2,5-diamine] was tested, and the IC50 was 0.005 to 250 nM. Work on `Cc1nnc2cc(Nc3nc4cccc(CC5CCOCC5)n4n3)ccn12` [Example 538, 3-methyl-N-(5-((tetrahydro-2H-pyran-4-yl)methyl)-[1,2,4]triazolo[1,5-a]pyridin-2-yl)-[1,2,4]triazolo[4,3-a]pyridin-7-amine] yielded an IC50 of 1000 to 10000 nM. `c1ccc(Nc2nc3cccc(-c4ccc5nc[nH]c5c4)n3n2)cc1` [Example 514, 5-(1H-benzo[d]imidazol-6-yl)-N-phenyl-[1,2,4]triazolo[1,5-a]pyridin-2-amine] gave an IC50 of 0.005 to 250 nM. Work on `CNCc1nc2cc(-c3cccc4nc(Nc5ccccc5)nn34)ccc2[nH]1` [Example 487, 5-(2-((methylamino)methyl)-1H-benzo[d]imidazol-5-yl)-N-phenyl-[1,2,4]triazolo[1,5-a]pyridin-2-amine] yielded an IC50 of 0.005 to 250 nM. `CN(c1cccc2nc(Nc3ccc4c(cnn4C)c3)nn12)C1CCOCC1` [Example 542, N^5-methyl-N^2-(1-methyl-1H-indazol-5-yl)-N^5-(tetrahydro-2H-pyran-4-yl)-[1,2,4]triazolo[1,5-a]pyridine-2,5-diamine] showed an IC50 of 0.005 to 250 nM. Molecule `Cc1cc(Nc2nc3cccc(NC4CCOCC4)n3n2)cnc1N1CCOCC1` [Example 547, N^2-(5-methyl-6-morpholinopyridin-3-yl)-N^5-(tetrahydro-2H-pyran-4-yl)-[1,2,4]triazolo[1,5-a]pyrridine-2,5-diamine] has an IC50 of 500 to 1000 nM. For `c1cc(N[C@@H]2CCCNC2)n2nc(Nc3ccc4cn[nH]c4c3)nc2c1` [Example 467, (R)-N^2-(1H-indazol-6-yl)-N^5-(piperidin-3-yl)-[1,2,4]triazolo[1,5-a]pyridin-2,5-diamine], the IC50 was 0.005 to 250 nM. With `NC(=O)c1ccc(Nc2nc3cccc(NC4CCCNC4)n3n2)cc1` (stereo in doubt) [Example 476, (R)-4-(5-(piperidin-3-ylamino)-[1,2,4]triazolo[1,5-a]pyridin-2-ylamino)benzamide] the IC50 was 1000 to 10000 nM. With `O[C@H]1CC[C@@H](Nc2cccc3nc(Nc4ccc(C(F)(F)F)cc4)nn23)C1` (stereo in doubt) [Example 418, (1S,3R)-3-(2-(4-(trifluoromethyl)phenylamino)-[1,2,4]triazolo[1,5-a]pyridin-5-ylamino)cyclopentanol] the IC50 was 0.005 to 250 nM. `O=C1NCc2ccc(-c3cccc4nc(Nc5ccccc5)nn34)cc21` [Example 500, 6-(2-(phenylamino)-[1,2,4]triazolo[1,5-a]pyridin-5-yl)-isoindolin-1-one] was tested, and the IC50 was 500 to 1000 nM.

Same assay, conditions: activity levels A-D, read-out: Activity Level (IC50 in the Syk HTRF assay)
For `OC1CCN(c2cccc3nc(Nc4ccc(C(F)(F)F)cc4)nn23)C1` (stereo in doubt) [Example 333, (S)-1-(2-(4-(trifluoromethyl)phenylamino)-[1,2,4]triazolo[1,5-a]pyridin-5-yl)pyrrolidin-3-ol], the IC50 was 250 to 500 nM. `CNc1cc(Nc2nc3cccc(N[C@H]4CC[C@@H](O)CC4)n3n2)ccn1` [Example 366, cis-4-(2-(2-(methylamino)pyridin-4-ylamino)-[1,2,4]triazolo[1,5-a]pyridin-5-ylamino)cyclohexanol] gave an IC50 of 0.005 to 250 nM. Molecule `Cc1cc(Nc2nc3cccc(N[C@H]4CC[C@@H](O)CC4)n3n2)ccn1` [Example 367, cis-4-(2-(2-methylpyridin-4-ylamino)-[1,2,4]triazolo[1,5-a]pyridin-5-ylamino)cyclohexanol] has an IC50 of 500 to 1000 nM. `O[C@H]1CC[C@H](CNc2cccc3nc(Nc4ccc(C(F)(F)F)cc4)nn23)CC1` [Example 375, trans-4-((2-(4-(trifluoromethyl)phenylamino)-[1,2,4]triazolo[1,5-a]pyridin-5-ylamino)methyl)cyclohexanol] gave an IC50 of 1000 to 10000 nM. `N#Cc1ccc(Nc2nc3cccc(N[C@H]4CC[C@@H](O)CC4)n3n2)cc1` [Example 363, 4-(5-(cis-4-hydroxycyclohexylamino)-[1,2,4]triazolo[1,5-a]pyridin-2-ylamino)benzonitrile] gave an IC50 of 0.005 to 250 nM. In the case of `O=C1NCC[C@H]1NCc1cccc2nc(Nc3ccc(C(F)(F)F)cc3)nn12` [Example 205, (R)-3-((2-(4-(trifluoromethyl)phenylamino)-[1,2,4]triazolo[1,5-a]pyridin-5-yl)methylamino)pyrrolidin-2-one], the IC50 is reported as 1000 to 10000 nM. With `O[C@H]1CC[C@@H](Nc2cccc3nc(Nc4cccc(Cl)c4)nn23)CC1` [Example 354, cis-4-(2-(3-chlorophenylamino)-[1,2,4]triazolo[1,5-a]pyridin-5-ylamino)cyclohexanol] the IC50 was 0.005 to 250 nM. `CC(C)C1CNC(=O)CN1Cc1cccc2nc(Nc3ccc(C(F)(F)F)cc3)nn12` (racemic) [Example 230, (±)-5-isopropyl-4-((2-(4-(trifluoromethyl)phenylamino)-[1,2,4]triazolo[1,5-a]pyridin-5-yl)methyl)piperazin-2-one] gave an IC50 of 1000 to 10000 nM. `NC(=O)c1cc(Nc2nc3cccc(N[C@H]4CC[C@@H](O)CC4)n3n2)ccn1` [Example 255, cis-4-(5-(4-hydroxycyclohexylamino)-[1,2,4]triazolo[1,5-a]pyridin-2-ylamino)picolinamide] gave an IC50 of 1000 to 10000 nM. Molecule `CC(C)(O)c1nc2ccc(-c3cccc4nc(Nc5ccc(C(F)(F)F)cc5)nn34)cc2[nH]1` [Example 379, 2-(6-(2-(4-(trifluoromethyl)phenylamino)-[1,2,4]triazolo[1,5-a]pyridin-5-yl)-1H-benzo[d]imidazol-2-yl)propan-2-ol] has an IC50 of 250 to 500 nM. With `CC1C(=O)NCCN1Cc1cccc2nc(Nc3ccc(C(F)(F)F)cc3)nn12` (stereo not shown) [Example 281, 3-methyl-4-((2-(4-(trifluoromethyl)phenylamino)-[1,2,4]triazolo[1,5-a]pyridin-5-yl)methyl)piperazin-2-one] the IC50 was 0.005 to 250 nM. In the case of `CC(C)(O)[C@H]1CC[C@H](Nc2cccc3nc(Nc4ccc(C(F)(F)F)cc4)nn23)CC1` (stereo in doubt) [Example 397, trans-2-(4-(2-(4-(trifluoromethyl)phenylamino)-[1,2,4]triazolo[1,5-a]pyridin-5-ylamino)cyclohexyl)propan-2-ol], the IC50 is reported as 1000 to 10000 nM. For `O=C1NCc2ccc(Nc3nc4cccc(N[C@H]5CC[C@@H](O)CC5)n4n3)cc21` [Example 260, cis-6-(5-(4-hydroxycyclohexylamino)-[1,2,4]triazolo[1,5-a]pyridin-2-ylamino)isoindolin-2-one], the IC50 was 500 to 1000 nM.

Same assay, conditions: read-out: Activity Level (Syk HTRF assay IC50)
Work on `Cn1ncc2ccc(Nc3nc4cccc(NC5CCOCC5)n4n3)cc21` [Example 161, N^2-(1-methyl-1H-indazol-6-yl)-N^5-(tetrahydro-2H-pyran-4-yl)-[1,2,4]triazolo[1,5-a]pyridin-2,5-diamine] yielded an IC50 of 0.005 to 250 nM. In the case of `NC(=O)c1cc(Nc2nc3cccc(-c4ccccc4)n3n2)ccc1F` [compound 65, 2-fluoro-5-(5-phenyl-[1,2,4]triazolo[1,5-a]pyridin-2-ylamino)benzamide], the IC50 is reported as 1000 to 10000 nM. For `Cc1cc(Nc2nc3cccc(NC4CCOCC4)n3n2)cc2c1C(C)(C)C(=O)N2` [compound 125, 3,3,4-trimethyl-6-(5-(tetrahydro-2H-pyran-4-ylamino)-[1,2,4]triazolo[1,5-a]pyridin-2-ylamino)indolin-2-one], the IC50 was 0.005 to 250 nM. For `c1ccc(-c2cccc3nc(Nc4ccc5ncccc5c4)nn23)cc1` [compound 59, N-(5-phenyl-[1,2,4]triazolo[1,5-a]pyridin-2-yl)quinolin-6-amine], the IC50 was 0.005 to 250 nM. For `CC1(O)CN(c2cccc3nc(Nc4ccc5c(c4)NC(=O)C5(C)C)nn23)C1` [Example 171, 6-(5-(3-hydroxy-3-methylazetidin-1-yl)-[1,2,4]triazolo[1,5-a]pyridin-2-ylamino)-3,3-dimethylindolin-2-one], the IC50 was 0.005 to 250 nM. For `Fc1ccccc1-c1cccc2nc(Nc3ccccc3)nn12` [compound 80, 5-(2-fluorophenyl)-N-phenyl-[1,2,4]triazolo[1,5-a]pyridin-2-amine], the IC50 was 1000 to 10000 nM. Molecule `COC[C@]1(O)CC[C@@H](Cc2cccc3nc(Nc4ccc(C(F)(F)F)cc4)nn23)CC1` [Example 187, cis-1-(methoxymethyl)-4-((2-(4-(trifluoromethyl)phenylamino)-[1,2,4]triazolo[1,5-a]pyridin-5-yl)methyl)cyclohexanol] has an IC50 of 500 to 1000 nM. Work on `Cc1nn(CCO)c2cc(Nc3nc4cccc(N[C@H]5CC[C@@H](O)CC5)n4n3)ccc12` [Example 191, cis-4-(2-(1-(2-hydroxyethyl)-3-methyl-1H-indazol-6-ylamino)-[1,2,4]triazolo[1,5-a]pyridin-5-ylamino)cyclohexanol] yielded an IC50 of 0.005 to 250 nM. With `c1ccc(Nc2nc3cccc(-c4cccc(-c5ncn[nH]5)c4)n3n2)cc1` [compound 62, 5-(3-(1H-1,2,4-triazol-5-yl)phenyl)-N-phenyl-[1,2,4]triazolo[1,5-a]pyridin-2-amine] the IC50 was 250 to 500 nM. `CN(c1cccc2nc(Nc3ccc4c(c3)NC(=O)C4(C)C)nn12)C1CCOC1` (stereo in doubt) [compound 121, (S)-3,3-dimethyl-6-(5-(methyl(tetrahydrofuran-3-yl)amino)-[1,2,4]triazolo[1,5-a]pyridin-2-ylamino)indolin-2-one] gave an IC50 of 0.005 to 250 nM.
